Assay results as given in the NIST ThermoML archive (doi:10.1016/j.jct.2006.10.008).

Experiments:
[1] = xn = mol fraction of the nth substance listed; conditions: 298.15 K, 101 kPa, Liquid
[2] = excess molar enthalpy (molar enthalpy of mixing); xn = mol fraction of the nth substance listed; conditions: 298.15 K, 101 kPa, Liquid, Calvet calorimetry

ClCCCCCCCl [1,6-dichlorohexane] + CCCCOC=O
Conditions | excess molar enthalpy [kcal/mol] | mass density [kg/m3]
[1], x2 = 0.074 | – | 1053.56
[1], x2 = 0.1444 | – | 1043.66
[1], x2 = 0.2217 | – | 1032.43
[1], x2 = 0.2795 | – | 1023.76
[1], x2 = 0.3441 | – | 1013.82
[1], x2 = 0.4081 | – | 1003.67
[1], x2 = 0.5278 | – | 983.77
[1], x2 = 0.586 | – | 973.68
[1], x2 = 0.641 | – | 963.84
[1], x2 = 0.702 | – | 952.63
[1], x2 = 0.7544 | – | 942.71
[1], x2 = 0.856 | – | 922.68
[1], x2 = 0.9056 | – | 912.53
[1], x2 = 0.9528 | – | 902.59
[2], x2 = 0.095 | 0.006 | –
[2], x2 = 0.1874 | 0.00985 | –
[2], x2 = 0.2768 | 0.0102 | –
[2], x2 = 0.3583 | 0.00722 | –
[2], x2 = 0.4321 | 0.00131 | –
[2], x2 = 0.4949 | -0.00696 | –
[2], x2 = 0.5195 | -0.00906 | –
[2], x2 = 0.5526 | -0.0129 | –
[2], x2 = 0.566 | -0.0141 | –
[2], x2 = 0.616 | -0.0186 | –
[2], x2 = 0.6674 | -0.0208 | –
[2], x2 = 0.7246 | -0.0205 | –
[2], x2 = 0.7832 | -0.0183 | –
[2], x2 = 0.8346 | -0.0157 | –
[2], x2 = 0.892 | -0.0102 | –
[2], x2 = 0.9474 | -0.0059 | –

CCCCCOC=O [pentyl methanoate] + ClCCCl
Conditions | excess molar enthalpy [kcal/mol] | mass density [kg/m3]
[1], x1 = 0.0396 | – | 1221.77
[1], x1 = 0.0779 | – | 1199.93
[1], x1 = 0.1181 | – | 1178.31
[1], x1 = 0.1601 | – | 1156.97
[1], x1 = 0.2047 | – | 1135.53
[1], x1 = 0.2505 | – | 1114.67
[1], x1 = 0.3008 | – | 1093.1
[1], x1 = 0.3529 | – | 1072.02
[1], x1 = 0.4074 | – | 1051.23
[1], x1 = 0.4655 | – | 1030.4
[1], x1 = 0.5288 | – | 1009.11
[1], x1 = 0.5948 | – | 988.32
[1], x1 = 0.6639 | – | 967.94
[1], x1 = 0.7399 | – | 946.95
[1], x1 = 0.8201 | – | 926.19
[1], x1 = 0.906 | – | 905.54
[2], x1 = 0.0406 | -0.0082 | –
[2], x1 = 0.0934 | -0.0198 | –
[2], x1 = 0.1501 | -0.0337 | –
[2], x1 = 0.2054 | -0.0459 | –
[2], x1 = 0.2613 | -0.0583 | –
[2], x1 = 0.3157 | -0.0674 | –
[2], x1 = 0.3653 | -0.0765 | –
[2], x1 = 0.4153 | -0.08382 | –
[2], x1 = 0.4604 | -0.08886 | –
[2], x1 = 0.5014 | -0.09156 | –
[2], x1 = 0.5593 | -0.0925 | –
[2], x1 = 0.6338 | -0.08788 | –
[2], x1 = 0.7235 | -0.075 | –
[2], x1 = 0.8158 | -0.055 | –
[2], x1 = 0.9141 | -0.0302 | –

CCCOC=O [propyl methanoate] + ClCCCl
Conditions | excess molar enthalpy [kcal/mol] | mass density [kg/m3]
[1], x1 = 0.0538 | – | 1223.09
[1], x1 = 0.1017 | – | 1203.75
[1], x1 = 0.1515 | – | 1184.04
[1], x1 = 0.2043 | – | 1163.71
[1], x1 = 0.2575 | – | 1143.76
[1], x1 = 0.3685 | – | 1103.98
[1], x1 = 0.4248 | – | 1084.54
[1], x1 = 0.4826 | – | 1065.09
[1], x1 = 0.5426 | – | 1045.46
[1], x1 = 0.6034 | – | 1026.11
[1], x1 = 0.6652 | – | 1006.9
[1], x1 = 0.7294 | – | 987.38
[1], x1 = 0.794 | – | 968.29
[1], x1 = 0.8599 | – | 949.22
[1], x1 = 0.9286 | – | 929.85
[2], x1 = 0.0489 | -0.00894 | –
[2], x1 = 0.1034 | -0.0201 | –
[2], x1 = 0.1594 | -0.0337 | –
[2], x1 = 0.2211 | -0.0473 | –
[2], x1 = 0.28 | -0.0608 | –
[2], x1 = 0.3363 | -0.0734 | –
[2], x1 = 0.3886 | -0.0843 | –
[2], x1 = 0.4382 | -0.09338 | –
[2], x1 = 0.483 | -0.1003 | –
[2], x1 = 0.5155 | -0.104 | –
[2], x1 = 0.5716 | -0.1046 | –
[2], x1 = 0.6361 | -0.1004 | –
[2], x1 = 0.7083 | -0.08982 | –
[2], x1 = 0.7725 | -0.0749 | –
[2], x1 = 0.8488 | -0.0545 | –
[2], x1 = 0.9302 | -0.0292 | –
